Measurements as given in US5444063A, “Enantiomerically pure β-D-dioxolane nucleosides with selective anti-Hepatitis B virus activity” (priority 1992, dated 1995).
“And” between values parts separate entries of the source, which are not always exact repeats. Equal values may be shown once. Read-outs that look alike come from different tables or passages of the source.

What was measured:
[1] = Toxicity analysis of test compounds in 2.2.15 cells (neutral red dye uptake); assay type: cell-based; settings: human
[2] = as above; assay type: cell-based; settings: human; remark: listed apart in the source
Protocol: Toxicity analyses were performed in order to assess whether any observed antiviral effects are due to a general effect on cell viability. The method used was based on the uptake of neutral red dye, a standard and widely used assay for cell viability in a variety of virus-host systems, including HSV (herpes simplex virus) and HIV. Details of the procedure are provided in the toxicity table legends.
The test compounds were used in the form of 40 mM stock solutions in DMSO (frozen on dry ice). Daily aliquots of the test samples were made and frozen at -20° C. so that each individual aliquot would be subjected to a single freeze-thaw cycle. The daily test aliquots were thawed, suspended into culture medium at room temperature and immediately added to the cell cultures° The compounds were tested at 0.0 and 1 μM for antiviral activity. The compounds were tested for toxicity at concentrations up to 300 μM.
Toxicity analyses were performed in 96-well flat bottomed tissue culture plates. Cells for the toxicity analyses were cultured and treated with test compounds with the same schedule as used for the antiviral evaluations. Each compound was tested at 4 concentrations, each in triplicate cultures. Uptake of neutral red dye was used to determine the relative level of toxicity. The absorbance of internalized dye at […] (A510) was used for the quantitative analysis. Values are presented as a percentage of the average A510 values (±standard deviations) in 9 separate cultures of untreated cells maintained on the same 96-well plate as the test compounds.

HBV [3] = settings: relative to average levels in untreated cells; Korba and Gerin 1992; read-out: Concentration at which a 90% depression of HBV RI is typically observed; cited from earlier work
2.2.15 cells = settings: versus untreated cultures; Korba and Gerin 1992; read-out: Concentration at which a 2-fold reduction in dye uptake is typically observed; cited from earlier work
HBV [4] = test: Effect of nucleosides on HBV production in 2.2.15 cells (HBV virion DNA and intracellular HBV DNA); assay type: cell-based, Hepatitis B virus; settings: for inhibition at 10 µM: Hepatitis B virus
Protocol: The ability of β-D-dioxolane-nucleosides to inhibit HBV can be measured by various experimental techniques. The assay used herein to evaluate the ability of the disclosed compounds to inhibit the replication of HBV is described in detail in Korba and Gerin, Antiviral Res. 19:55-70 (1992). […] The other compounds disclosed herein are evaluated similarly.
The antiviral evaluations were performed on two separate passages of cells, two cultures per passage (4 cultures total). All wells, in all plates, were seeded at the same density and at the same time.
Due to the inherent variations in the levels of both intracellular and extracellular HBV DNA, only depressions greater than 3.0-fold (for HBV virion DNA) or 2.5-fold (for HBV DNA replication intermediates) from the average levels for these HBV DNA forms in untreated cells are generally considered to be statistically significant [P<0.05] (Korba and Gerin, Antiviral Res. 19: 55-70, 1992). The levels of integrated HBV DNA in each cellular DNA preparation (which remain constant on a per cell basis in these experiments) were used to calculate the levels of intracellular HBV DNA forms, thereby eliminating technical variations inherent in the blot hybridization assays.
The test compounds were used in the form of 40 mM stock solutions in DMSO (frozen on dry ice). Daily aliquots of the test samples were made and frozen at -20° C. so that each individual aliquot would be subjected to a single freeze-thaw cycle. […] The compounds were tested for toxicity at concentrations up to 300 μM.

[5] = 10 μM, individual culture, listed as DDC

For Nc1ccn([C@H]2CC[C@@H](CO)O2)c(=O)n1 [2',3'-ddC, 2',3'-dideoxycytosine, reference compound], the viability at 1000 µM [1] was 5 ± 1%, the viability at 30 µM ([2]; 30 μM) was 101 ± 1% and the viability at 100 µM ([2]; 100 μM) was 97 ± 2%. The viability at 300 µM ([2]; 300 μM) was 44 ± 1%, the EC90 (HBV [3]) was 9 to 12 µM and the CC50 (2.2.15 cells) was 150 to 190 µM. For the same compound, the “HBV virion DNA, day 0” value (HBV [4]; [5]) was 66 pg/ml of cultured medium and 58 pg/ml of cultured medium and 67 pg/ml of cultured medium and 51 pg/ml of cultured medium, the “HBV virion DNA, day 3” value (HBV [4]; [5]) was 50 pg/ml of cultured medium and 52 pg/ml of cultured medium and 51 pg/ml of cultured medium and 48 pg/ml of cultured medium and the “HBV virion DNA, day 6” value (HBV [4]; [5]) was 20 pg/ml of cultured medium and 13 pg/ml of cultured medium and 19 pg/ml of cultured medium and 17 pg/ml of cultured medium. The “HBV virion DNA, day 9” value (HBV [4]; [5]) was 2 pg/ml of cultured medium and 3 pg/ml of cultured medium, the “Intracellular HBV DNA on Day 10, Mono (episomal 3.2kB HBV genomes)” value (HBV [4]; [5]) was 0.9 pg/μM of cellular DNA and 1.0 pg/μM of cellular DNA and 1.4 pg/μM of cellular DNA and 1.1 pg/μM of cellular DNA and the “Intracellular HBV DNA on Day 10, RI (HBV DNA replication intermediates)” value (HBV [4]; [5]) was 6 pg/μM of cellular DNA and 4 pg/μM of cellular DNA and 5 pg/μM of cellular DNA and 7 pg/μM of cellular DNA. For the same compound, the “HBV virion DNA, day 0, mean” value (HBV [4]; 10 μM, mean of 4 cultures) was 60.50 pg/ml of cultured medium, the “HBV virion DNA, day 3, mean” value (HBV [4]; 10 μM, mean of 4 cultures) was 50.25 pg/ml of cultured medium and the “HBV virion DNA, day 6, mean” value (HBV [4]; 10 μM, mean of 4 cultures) was 17.25 pg/ml of cultured medium. For the same compound, the “HBV virion DNA, day 9, mean” value (HBV [4]; 10 μM, mean of 4 cultures) was 2.25 pg/ml of cultured medium, the “Intracellular HBV DNA on Day 10, Mono, mean” value (HBV [4]; 10 μM, mean of 4 cultures) was 1.10 pg/μM of cellular DNA and the “Intracellular HBV DNA on Day 10, RI, mean” value (HBV [4]; 10 μM, mean of 4 cultures) was 5.50 pg/μM of cellular DNA. For the same compound, the inhibition at 10 µM (HBV [4]; 0 h, read-out: % inhibition, HBV virion DNA, day 0) was 3.97%, the inhibition at 10 µM (HBV [4]; 72 h, read-out: % inhibition, HBV virion DNA, day 3) was 22.4% and the inhibition at 10 µM (HBV [4]; 144 h, read-out: % inhibition, HBV virion DNA, day 6) was 77.5%. It also gave an inhibition at 10 µM (HBV [4]; 216 h, read-out: % inhibition, HBV virion DNA, day 9) of 97%, an inhibition at 10 µM (HBV [4]; 240 h, read-out: % inhibition, intracellular HBV DNA Mono, Day 10) of 56.4% and an inhibition at 10 µM (HBV [4]; 240 h, read-out: % inhibition, intracellular HBV DNA RI, Day 10) of 92.5%. The “Depression of HBV DNA replication” value (HBV [4]; positive treatment control, at the concentration used) was “significant depressions of HBV DNA replication”.
